For this assay, the species on record is Canis familiaris. The assay is described as follows: The compound was tested for its relaxation activity on smooth muscle of canine mesenteric artery. In kind it is functional. The conditions noted are these: Canis lupus familiaris.

SMILES strings stand for the structures.

By EC50 is commonly meant the midpoint of the concentration-response curve. A higher EC50 goes with a less potent agent. Regarding `CC1(C)C=C(c2cccc[n+]2[O-])c2cc(C#N)ccc2O1`, the concentration giving a half-maximal response (EC50) is 222 nM.

As to `CC1(C)C=C(C2CCC[S+]2[O-])c2cc([N+](=O)[O-])ccc2O1` (stereo not given), a half-maximal effect (EC50) was put at 1960 nM.

On to `CC1(C)C[C@](O)(C2CCC[S+]2[O-])c2cc([N+](=O)[O-])ccc2O1` (stereo not given in full), for which the concentration for a half-maximal effect (EC50) amounted to 12200 nM.

Compound `CC1(C)C=C(c2cccc[n+]2[O-])c2cc([N+](=O)[O-])ccc2O1` displayed an EC50 of 61.8 nM.

For the compound `CC1(C)Oc2ccc(C#N)cc2[C@@H](N2CCCC2=O)[C@@H]1O` [CROMAKALIM], the half-maximal effective concentration (EC50) was 1960 nM.
